Data from US20260217688A1, “INHIBITORS OF JAK2” (Llydaw Therapeutics, Inc., priority 2022, published 2026).

Assays:
JAK2 JH2 = biological target: T1, JAK2 JH2 (Homo sapiens, UniProt O60674); test: JAK2 JH2 TR-FRET Assay; assay type: binding; conditions: JAK2 JH2 1 nM, Tracer ZE84-0003 10 nM
T1 construct: Enzyme: JAK2 JH2, His-Avi-Tag, Biotin-Labeled (BPS Bioscience, Cat #79074) 1 nM; His; purchased BPS Bioscience 79074
Description: Assay Buffer 1×: • 20 mM HEPES pH 7.2-7.4; • 10 mM MgCl2; • 0.015% Brij-35; • 2 mM DTT; • 0.05 mg/ml BSA.
Final assay concentrations: • DMSO: 0.25%; • Streptavidin Tb-cryptate (Cisbio, Cat #610SATLB) 0.2 nM; • Enzyme: JAK2 JH2, His-Avi-Tag, Biotin-Labeled (BPS Bioscience, Cat #79074) 1 nM; • Probe: Tracer ZE84-0003 (ChemRar) 10 nM.
Materials: • Reaction plate: ProxiPlate-384 Plus White Plate (PerkinElmer); • Dilution plate: Diamond Well Plate (Axygen, Cat #P-384-120 SQ-C-S); • Compounds plate: Diamond Well Plate (Axygen, Cat #P-384-120 SQ-C-S).
Assay protocol: • 1. Prepare 400× solutions of compounds in DMSO into Compounds plate; • 2. Prepare Dilution plate: add 39 μL of 1× Assay buffer per well of Dilution plate; • 3. Prepare 2×Tb-cryptate mix in 1× Assay buffer. Add 10 μL of 2×Tb-cryptate mix to K-(Tb-cryptate and Probe without Enzyme) wells and blank (Tb-cryptate without Probe and Enzyme) wells; • 4. Add JAK2 JH2 into the rest of 2×Tb-cryptate mix to make 2×JAK2 JH2+Tb-cryptate mix. Add 10 μL per well into Reaction plate; • 5. Centrifuge plate at 200 g for 1 min; • 6. Dilute 1 μL of 400× compounds in 39 μL 1× Assay buffer in Dilution plate; • 7. Add 2 μL of 10× compounds from Dilution plate to Reaction plate with 10 μL of JAK2 JH2+Tb-cryptate mix; • 8. Centrifuge plate at 200 g for 1 min; • 9. Pre-incubate Reaction plate with compounds 15 min; • 10. Prepare 2.5× Tracer mix; • 11. Add 8 μL of 2.5× Tracer mix into appropriate wells of Reaction plate; • 12. Centrifuge plate at 800 g for 3 min; • 13. Incubate at rt for 15 min; • 14. Measure Fluorescence using Microplate Reader (Ex: TR, Em1/Em2: 482/520). The results of this assay are shown in the Table B. The values of EC50 shown as a letters A-D, where: A≤0.01 μM; 0.01 μM<B≤0.05 μM; 0.05 μM<C≤0.1 μM; D>0.1.

[1] = Proliferation inhibition assay (CellTiter-Glo), Ba/F3 JAK2 V617F; assay type: cell-based; conditions: mouse, Ba/F3 (JAK2 V617F) cells; with 10 ng/ml rmIL-3, 72 h; read-out: Ba/F3 JAK2 V617F + IL3, CC50 3 days
Description: (§1) Ba/F3 (JAK2 wt) (ABM, T3076) cells and Ba/F3 (JAK2 V617F) (WuXi AppTec) cells were grown in RPMI-1640 (Gibco, cat. number 21870) supplemented with 10% FBS (Hyclone Laboratories Inc, Cat #SV30160.03), 1× Antibiotic-antimycotic (Gibco, Cat #15240-062), 2× Sodium pyruvate (Paneco, cat #F023), 2× Essential amino acids (Paneco, cat #F115/100), 1× Non-Essential amino acids (Paneco, cat #F116) at 37° C. in 5% CO2 atmosphere.
(§2) For the proliferation inhibition assay Ba/F3 (JAK2 wt) and Ba/F3 (JAK2 V617F) cells were seeded into a CellBIND® 384-well Flat Clear Bottom Black Polystyrene Microplates (Corning, USA, Cat #3770) at a density of 4000 cells per well in complete culture medium with or without 10 ng/ml rmIL-3 (RD systems, USA, Cat #403-ML-025) using Biomek FX/NX (384) liquid handler, 45 μl of cell suspension in complete culture medium per well. 500× compound's stocks in DMSO (Sigma Cat #D2650) were prepared in compounds plate (Diamond Well Plate, Axigen, Cat #P-384-120 SQ-C-S) applying Biomek 2000. 1 μl of 500× compounds stock was added to 49 μl of complete culture medium into Dilution plate (Diamond Well Plate, Axigen, Cat #P-384-120 SQ-C-S), mixed and then 5 μl of 10× compounds solution was transferred to cells using Biomek FX/NX (384) liquid handler. The centrifugation at 100 g for 1 min at Eppendorf 5810 followed. Final DMSO concentration in assay was 0.2%. All treatments were performed in technical and biological duplicates. Treated cells were incubated for 72 h at 37° C. with 5% CO2.
(§3) After 3 days of incubation, CellTiter-Glo Luminescent Cell Viability Assay (Promega) was performed. 10 μl of CellTiter-Glo (Promega, CAT #G7572) was added to the cells using Biomek FX/NX (384) liquid handler. The assay plate was centrifuged at 100 g for 1 min and luminescence signal was measured using Microplate Reader (CLARIOStar).

Ba/F3 (JAK2 V617F) cells = test: as above; assay type: cell-based; conditions: Mus musculus, BaF3; without IL3, 72 h; read-out: Ba/F3 JAK2 V617F, CC50 3 days
Description: as §1, §2, §3

[2] = Proliferation inhibition assay (CellTiter-Glo), Ba/F3 JAK2 wt; assay type: cell-based; conditions: mouse, Ba/F3 (JAK2 wt) cells
Description: as §1, §2, §3

[3] = with 10 ng/ml rmIL-3, 72 h, read-out: Ba/F3 JAK2 wt + IL3, CC50 3 days
[4] = without IL3, 72 h, read-out: Ba/F3 JAK2 wt, CC50 3 days

T1 sequence (O60674 545-809 limits assumed): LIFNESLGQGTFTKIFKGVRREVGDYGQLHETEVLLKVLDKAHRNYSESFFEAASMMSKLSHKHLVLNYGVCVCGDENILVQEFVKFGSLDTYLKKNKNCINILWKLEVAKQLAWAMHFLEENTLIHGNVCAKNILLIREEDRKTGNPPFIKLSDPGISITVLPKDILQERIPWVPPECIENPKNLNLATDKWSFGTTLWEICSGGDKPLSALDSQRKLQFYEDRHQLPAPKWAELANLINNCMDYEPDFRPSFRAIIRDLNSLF

SMILES	EC50 (JAK2 JH2) [µM]	CC50 at 72 h [1] [µM]	CC50 (Ba/F3 (JAK2 V617F) cells) [µM]	CC50 at 72 h [2, 3] [µM]	CC50 at 72 h [2, 4] [µM]
COc1c(Nc2nc(Nc3cnn(C)c3)ncc2C(N)=O)cccc1-c1ncn(C)n1 [Compound 1, 4-((2-Methoxy-3-(1-methyl-1H-1,2,4-triazol-3-yl)phenyl)amino)-2-((1-methyl-1H-pyrazol-4-yl)amino)pyrimidine-5-carboxamide]	0.01 to 0.05	5 to 10	1 to 5	> 10	> 10
COc1c(Nc2nc(Nc3cnn(C)c3)ncc2C(N)=O)cccc1-c1ccccn1 [Compound 2, 4-[2-methoxy-3-(2-pyridyl)anilino]-2-[(1-methylpyrazol-4-yl)amino]pyrimidine-5-carboxamide]	0.05 to 0.1	1 to 5	≤ 0.5	> 10	> 10
COc1c(Nc2nc(Nc3cnn(C)c3)ncc2C(N)=O)cccc1-c1nnc(C)o1 [Compound 3, 4-[2-methoxy-3-(5-methyl-1,3,4-oxadiazol-2-yl)anilino]-2-[(1-methylpyrazol-4-yl)amino]pyrimidine-5-carboxamide]	0.01 to 0.05	> 10	5 to 10	> 10	> 10
COc1c(Nc2nc(Nc3cnn(C(C)C)c3)ncc2C(N)=O)cccc1-c1ncn(C)n1 [Compound 4, 2-((1-Isopropyl-1H-pyrazol-4-yl)amino)-4-((2-methoxy-3-(1-methyl-1H-1,2,4-triazol-3-yl)phenyl)amino)pyrimidine-5-carboxamide]	≤ 0.01	1 to 5	≤ 0.5	5 to 10	5 to 10
COc1c(Nc2nc(Nc3cnn(CCN(CC(C)C)CC(C)C)c3)ncc2C(N)=O)cccc1-c1ccccn1 [Compound 42, 2-[[1-[2-(diisobutylamino)ethyl]pyrazol-4-yl]amino]-4-[2-methoxy-3-(2-pyridyl)anilino]pyrimidine-5-carboxamide]	> 0.1		1 to 5	5 to 10	
COc1c(Nc2nc(Nc3cnn(C4CCOCC4)c3)ncc2C(N)=O)cccc1-c1nc2ccccc2o1 [Compound 44, 4-[3-(1,3-benzoxazol-2-yl)-2-methoxy-anilino]-2-[(1-tetrahydropyran-4-ylpyrazol-4-yl)amino]pyrimidine-5-carboxamide]	0.01 to 0.05		≤ 0.5	1 to 5	
COc1c(Nc2nc(Nc3cnn(C4CCCCC4)c3)ncc2C(N)=O)cccc1-c1nc2ccccc2o1 [Compound 45, 4-[3-(1,3-benzoxazol-2-yl)-2-methoxy-anilino]-2-[(1-cyclohexylpyrazol-4-yl)amino]pyrimidine-5-carboxamide]	> 0.1		0.5 to 1	5 to 10	
COc1c(Nc2nc(Nc3cnn(CCCN(C)C)c3)ncc2C(N)=O)cccc1-c1nc2ccccc2o1 [Compound 46, 4-[3-(1,3-benzoxazol-2-yl)-2-methoxy-anilino]-2-[[1-[3-(dimethylamino)propyl]pyrazol-4-yl]amino]pyrimidine-5-carboxamide]	0.05 to 0.1		≤ 0.5	1 to 5	
COc1c(Nc2nc(Nc3cnn(C4CCN(C)CC4)c3)ncc2C(N)=O)cccc1-c1ccccn1 [Compound 47]	> 0.1		1 to 5	5 to 10	
COc1c(Nc2nc(Nc3cnn(C4CCN(C(C)C)CC4)c3)ncc2C(N)=O)cccc1-c1ccccn1 [Compound 48, 2-[[1-(1-isopropyl-4-piperidyl)pyrazol-4-yl]amino]-4-[2-methoxy-3-(2-pyridyl)anilino]pyrimidine-5-carboxamide]	0.05 to 0.1		≤ 0.5	1 to 5	
COc1c(Nc2nc(Nc3cnn(C45CC6CC(CC(C6)C4)C5)c3)ncc2C(N)=O)cccc1-c1nc2ccccc2o1 [Compound 49, 2-[[1-(1-adamantyl)pyrazol-4-yl]amino]-4-[3-(1,3-benzoxazol-2-yl)-2-methoxy-anilino]pyrimidine-5-carboxamide]	> 0.1		5 to 10	5 to 10	
COCCn1cc(Nc2ncc(C(N)=O)c(Nc3cccc(-c4nc5ccccc5o4)c3OC)n2)cn1 [Compound 50]	0.01 to 0.05		≤ 0.5	> 10	
COCCn1cc(Nc2ncc(C(N)=O)c(Nc3cccc(-c4ncn(C)n4)c3OC)n2)cn1 [Compound 51]	0.01 to 0.05		1 to 5	> 10	
COCCCn1cc(Nc2ncc(C(N)=O)c(Nc3cccc(-c4nc5ccccc5o4)c3OC)n2)cn1 [Compound 52, 4-[3-(1,3-benzoxazol-2-yl)-2-methoxy-anilino]-2-[[1-(3-methoxypropyl)pyrazol-4-yl]amino]pyrimidine-5-carboxamide]	0.01 to 0.05		≤ 0.5	1 to 5	
COCCCn1cc(Nc2ncc(C(N)=O)c(Nc3cccc(-c4ncn(CCCOC)n4)c3OC)n2)cn1 [Compound 53]	0.01 to 0.05		1 to 5	> 10	
CCOCCn1cc(Nc2ncc(C(N)=O)c(Nc3cccc(-c4nc5ccccc5o4)c3OC)n2)cn1 [Compound 54]	0.01 to 0.05		≤ 0.5	1 to 5	
CCOCCn1cc(Nc2ncc(C(N)=O)c(Nc3cccc(-c4ncn(C)n4)c3OC)n2)cn1 [Compound 55, 2-[[1-(2-ethoxyethyl)pyrazol-4-yl]amino]-4-[2-methoxy-3-(1-methyl-1,2,4-triazol-3-yl)anilino]pyrimidine-5-carboxamide]	0.01 to 0.05		1 to 5	> 10	
COc1c(Nc2nc(Nc3cnn(CC(C)C)c3)ncc2C(N)=O)cccc1-c1nc2ccccc2o1 [Compound 56, 4-[3-(1,3-benzoxazol-2-yl)-2-methoxy-anilino]-2-[(1-isobutylpyrazol-4-yl)amino]pyrimidine-5-carboxamide]	> 0.1		0.5 to 1	5 to 10	
COc1c(Nc2nc(Nc3cnn(CC(F)(F)F)c3)ncc2C(N)=O)cccc1-c1nc2ccccc2o1 [Compound 57, 4-[3-(1,3-benzoxazol-2-yl)-2-methoxy-anilino]-2-[[1-(2,2,2-trifluoroethyl)pyrazol-4-yl]amino]pyrimidine-5-carboxamide]	> 0.1		> 10	> 10	
